For test [1], the target named is T1, HIV-1 IN–TRN-SR2 interaction (UniProt P12497+Q9Y5L0).
T1 construct: N-terminally His6-tagged and untagged IN; made in house; host or cells: E. coli BL21-CodonPlus2 (DE3)
The test is described as follows: HIV-1 IN–TRN-SR2 AlphaScreen interaction assay. Type of test: binding. Particulars: evaluation as positive control, Fig. 2b. Here is the method: Compound stocks were dissolved at approximately 5 mM in dimethylsulfoxide (DMSO) in 96-well plates. Stocks were first diluted to 125 µM in assay buffer (150 mM NaCl, 25 mM Tris–HCl pH 7.4, 1 mM MgCl2, 0.1% (v/v) Tween-20 and 0.1% (w/v) bovine serum albumin (BSA)) supplemented with 2.5% (v/v) DMSO before 10 µl was transferred to a dry 384-well PS 384-OptiPlate (Perkin Elmer) on a Freedom EVO200 liquid handling robot (Tecan). Untagged TRN-SR2 at 2.5 µM and assay buffer containing 5% DMSO were transferred from a separate 96-well plate to the assay plates and represented the positive and negative controls, respectively. Next, 5 µl each of 5× working dilutions of GST-TRN-SR2 and His6-IN were added using an XRD-384 automated reagent dispenser (FluidX). The plate was left to incubate for 1 h at 7 °C before 5 µl of a glutathione donor and Ni^2+-chelate acceptor AlphaScreen bead mixture (Perkin Elmer) was added. […]
Development of robust high-throughput assays requires optimal buffer conditions in which both proteins and the detection method are stable and reproducible. […] This experience allowed us to readily adapt an assay buffer to meet the requirements for a high-throughput screen (HTS) for inhibitors of the interaction. […]

For a further test, the system named is HIV. The note with it: cited from earlier work.
Test [2] concerns HIV PIC nuclear import (IN-eGFP labeled virus). Briefly: PIC nuclear import assay in HeLaP4 cells. The note with it: 100 µM hit compound, 5 h after infection, experiment compared to DMSO. Type of test: cell-based, HIV-1.

“Also recorded” adds a separate entry of the source.

T1 sequence (Q9Y5L0 whole entry, other chains not shown): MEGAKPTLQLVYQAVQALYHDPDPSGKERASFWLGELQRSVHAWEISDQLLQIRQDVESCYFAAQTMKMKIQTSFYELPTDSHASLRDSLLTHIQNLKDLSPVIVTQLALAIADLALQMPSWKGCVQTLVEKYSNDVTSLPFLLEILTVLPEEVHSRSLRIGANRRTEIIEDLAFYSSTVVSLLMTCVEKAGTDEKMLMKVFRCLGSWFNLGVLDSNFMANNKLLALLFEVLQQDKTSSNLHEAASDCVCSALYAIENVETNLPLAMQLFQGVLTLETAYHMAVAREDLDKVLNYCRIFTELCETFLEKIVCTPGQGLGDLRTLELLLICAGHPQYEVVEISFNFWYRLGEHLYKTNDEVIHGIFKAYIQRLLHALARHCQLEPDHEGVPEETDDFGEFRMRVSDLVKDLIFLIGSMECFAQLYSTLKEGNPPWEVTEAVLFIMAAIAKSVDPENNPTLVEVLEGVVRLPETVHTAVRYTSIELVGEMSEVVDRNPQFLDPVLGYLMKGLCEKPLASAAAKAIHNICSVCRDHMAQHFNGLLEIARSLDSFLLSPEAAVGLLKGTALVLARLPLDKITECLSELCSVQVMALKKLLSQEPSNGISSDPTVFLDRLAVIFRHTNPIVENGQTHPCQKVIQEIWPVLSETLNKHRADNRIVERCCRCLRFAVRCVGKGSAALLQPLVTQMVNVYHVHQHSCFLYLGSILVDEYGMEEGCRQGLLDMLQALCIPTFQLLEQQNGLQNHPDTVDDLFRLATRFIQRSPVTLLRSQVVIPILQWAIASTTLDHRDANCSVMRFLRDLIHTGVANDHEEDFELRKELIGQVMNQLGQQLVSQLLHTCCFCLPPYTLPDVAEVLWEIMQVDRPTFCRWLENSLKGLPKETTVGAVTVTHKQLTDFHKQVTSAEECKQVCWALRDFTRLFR

Turning to “Untagged TRN-SR2: untagged recombinant Transportin-SR2 protein, positive control of the AlphaScreen”, the “Inhibition of the IN–TRN-SR2 AlphaScreen signal by untagged protein (titration, in words)” value in test [1] is given as “could block the interaction completely; also recorded: did inhibit the signal”. As for `Cc1[nH]c2ccccc2c1CC(=O)N[C@@H](Cc1ccccc1)C(=O)N(C)c1ccccc1` [PF74, PF-3450074], the “Inhibition of reverse transcription (in words)” value with HIV (higher concentrations (10 µM)) is “inhibits reverse transcription at higher concentrations”. The “Inhibition of HIV nuclear import (in words)” value in the test with HIV (low concentrations (2 µM)) was “known to inhibit nuclear import at low concentrations”. As to `Cc1nnc(C(=O)NC(C)(C)c2nc(C(=O)NCc3ccc(F)cc3)c(O)c(=O)n2C)o1` [Ral, Raltegravir], the “% nuclear PICs (mean)” value in test [2] is 4.5%.

The values are drawn from paper PMC5767004, “Inhibitors of the integrase–transportin-SR2 interaction block HIV nuclear import” (Retrovirology, 2018).
